In patent US10239882B2, “Substituted 5-methyl-[1,2,4]triazolo[1,5-a]pyrimidin-2-amine compounds as PDE2 inhibitors” (DART NEUROSCIENCE (CAYMAN) LTD., priority 2014, dated 2019):

Target: FLAG-tagged PDE2A1 (amino acids 2-941) (Homo sapiens (Human), UniProt O00408)
Assay: IMAP TR-FRET PDE2A enzymatic assay
Type: biochemical
Conditions: 200 nM FAM-cAMP substrate, 11-point half-log dose-response
Description: An IMAP TR-FRET-based phosphodiesterase assay was developed using the PDE2A isoform. IMAP technology is based on high-affinity binding of phosphate by immobilized metal (MIII) coordination complexes on nanoparticles. The IMAP “binding reagent” recognizes phosphate groups on AMP or GMP generated from cAMP or cGMP in a PDE reaction. Cyclic nucleotides that carry a phosphodiester bond and not a free phosphate are not recognized by the binding reagent. The time resolved fluorescence resonance energy transfer (TR-FRET) is afforded by a Terbium (Tb)-Donor pre-bound to the nanoparticles. FRET occurs when the fluorescent-labeled AMP or GMP product of a PDE reaction binds and comes into close proximity to the Tb-Donor complex. Due to the long lifetime of Tb fluorescence, detection can be run in time-resolved mode to reduce or eliminate interference from auto-fluorescent compounds.
The IMAP TR-FRET PDE2A assay was performed in 1536-well white plates. A total of 250 pg per well of FLAG-tagged PDE2A1 (amino acids 2-941) was dispensed in 2.5 μL IMAP assay buffer consisting of 10 mM Tris pH 7.2, 10 mM MgCl2, 1 mM DTT, and 0.1% fatty acid free BSA. 30 nL of compound was then added from 1 mM stocks in DMSO using a Kalypsys Pintool. Plates were incubated for 5 min at room temperature before dispensing 1.5 μL of 533 nM FAM-cAMP substrate for a final concentration of 200 nM. Following a brief centrifugation, plates were incubated for 30 min at room temperature. The assay was terminated by adding 5 μL IMAP binding reagent Tb complex to each well which was prepared according to manufacturer's recommendations (Molecular Devices). Plates were incubated an additional 90 minutes at room temperature and read on a Viewlux plate reader. All compounds were solvated at a concentration of 10 mM in DMSO and tested in 11-point half-log dose-response. Curve fitting and IC50 values were determined using a standard four parameter fit.

Chain of FLAG-tagged PDE2A1 (amino acids 2-941) (O00408 2-941): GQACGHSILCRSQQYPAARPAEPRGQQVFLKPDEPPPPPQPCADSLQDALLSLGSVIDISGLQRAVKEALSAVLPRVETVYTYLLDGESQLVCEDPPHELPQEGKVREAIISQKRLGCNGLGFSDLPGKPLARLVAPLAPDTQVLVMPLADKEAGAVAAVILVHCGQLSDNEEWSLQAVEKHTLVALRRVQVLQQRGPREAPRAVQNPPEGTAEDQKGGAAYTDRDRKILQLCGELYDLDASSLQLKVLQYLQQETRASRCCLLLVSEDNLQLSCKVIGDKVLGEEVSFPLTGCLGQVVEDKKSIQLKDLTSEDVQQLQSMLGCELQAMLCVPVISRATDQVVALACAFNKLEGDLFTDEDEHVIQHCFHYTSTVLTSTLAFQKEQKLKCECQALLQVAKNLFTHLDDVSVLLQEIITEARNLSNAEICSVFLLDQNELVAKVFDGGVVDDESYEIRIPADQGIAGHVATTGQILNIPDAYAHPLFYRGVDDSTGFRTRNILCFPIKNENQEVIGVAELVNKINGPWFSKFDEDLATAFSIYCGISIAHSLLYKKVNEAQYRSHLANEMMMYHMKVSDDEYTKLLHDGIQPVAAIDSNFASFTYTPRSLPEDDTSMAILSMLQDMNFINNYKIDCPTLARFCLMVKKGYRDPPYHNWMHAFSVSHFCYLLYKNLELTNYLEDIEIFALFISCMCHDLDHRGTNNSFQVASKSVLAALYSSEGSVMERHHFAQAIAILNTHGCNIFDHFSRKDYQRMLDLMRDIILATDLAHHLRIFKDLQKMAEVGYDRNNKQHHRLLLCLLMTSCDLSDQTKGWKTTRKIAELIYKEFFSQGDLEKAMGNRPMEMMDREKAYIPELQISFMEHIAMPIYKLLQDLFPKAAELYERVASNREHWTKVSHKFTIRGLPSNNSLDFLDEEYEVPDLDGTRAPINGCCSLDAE

Q: For `Cc1cc(C2CCOCC2)n2nc(NCc3cc(F)cc(Cl)c3)nc2n1` [Example 84, N-[(3-Chloro-5-fluorophenyl)methyl]-5-methyl-7-(oxan-4-yl)-[1,2,4]triazolo[1,5-a]pyrimidin-2-amine], which “PDE2 (PIC50)” value is on record?
A: >7

Q: `Cc1cc(C2CCOCC2)n2nc(NCc3cnn(-c4ccccc4C)c3)nc2n1` [Example 36, 5-Methyl-N-{[1-(2-methylphenyl)-1H-pyrazol-4-yl]methyl}-7-(oxan-4-yl)-[1,2,4]triazolo[1,5-a]pyrimidin-2-amine] was tested. Which “PDE2 (PIC50)” value did it give?
A: >7

Q: For `COc1ccc(CNc2nc3nc(C)cc(C4CCOCC4)n3n2)cc1C(F)F` [Example 25, N-{[3-(Difluoromethyl)-4-methoxyphenyl]methyl}-5-methyl-7-(oxan-4-yl)-[1,2,4]triazolo[1,5-a]pyrimidin-2-amine], which “PDE2 (PIC50)” value is on record?
A: >7

Q: `Cc1cc(CNc2nc3nc(C)cc(C4CCOCC4)n3n2)cc(C)n1` [Example 53, N-[(2,6-Dimethylpyridin-4-yl)methyl]-5-methyl-7-(oxan-4-yl)-[1,2,4]triazolo[1,5-a]pyrimidin-2-amine] was tested. Which “PDE2 (PIC50)” value did it give?
A: >7

Q: For `Cc1cncc(CNc2nc3nc(C)cc(C4CCOCC4)n3n2)c1` [Example 54, 5-Methyl-N-[(5-methylpyridin-3-yl)methyl]-7-(oxan-4-yl)-[1,2,4]triazolo[1,5-a]pyrimidin-2-amine], which “PDE2 (PIC50)” value is on record?
A: >7

Q: How did the “PDE2 (PIC50)” value turn out when `Cc1cc(C2(C)CCOCC2)n2nc(NCc3cn(-c4ccccc4)nc3C)nc2n1` [Example 61, 5-Methyl-N-[(3-methyl-1-phenyl-1H-pyrazol-4-yl)methyl]-7-(4-methyloxan-4-yl)-[1,2,4]triazolo[1,5-a]pyrimidin-2-amine] was run?
A: >7

Q: Which “PDE2 (PIC50)” value does the source give for `COc1ccc(CNc2nc3nc(C(F)F)cc(C4CCOCC4)n3n2)cc1` [Example 29, 5-(Difluoromethyl)-N-[(4-methoxyphenyl)methyl]-7-(oxan-4-yl)-[1,2,4]triazolo[1,5-a]pyrimidin-2-amine] here?
A: >7

Q: With `Cc1cc(C2CCOCC2)n2nc(NCc3cc(-c4ccccc4)no3)nc2n1` [Example 37, 5-Methyl-7-(oxan-4-yl)-N-[(3-phenyl-1,2-oxazol-5-yl)methyl]-[1,2,4]triazolo[1,5-a]pyrimidin-2-amine] as the molecule, how does the “PDE2 (PIC50)” value read?
A: >7

Q: `Cc1cc(C2CCOCC2)n2nc(NCc3cnn(-c4ccccc4)c3)nc2n1` [Example 17, 5-Methyl-7-(oxan-4-yl)-N-[(1-phenyl-1H-pyrazol-4-yl)methyl]-[1,2,4]triazolo[1,5-a]pyrimidin-2-amine] was tested. Which “PDE2 (PIC50)” value did it give?
A: >7

Q: `Cc1cc(C2(C)CC2)n2nc(NCc3cn(-c4ccccc4)nc3C)nc2n1` [Example 76, 5-Methyl-N-[(3-methyl-1-phenyl-1H-pyrazol-4-yl)methyl]-7-(1-methylcyclopropyl)-[1,2,4]triazolo[1,5-a]pyrimidin-2-amine] was tested. Which “PDE2 (PIC50)” value did it give?
A: >7

Q: For `Cc1cc(C2CCOCC2)n2nc(NCc3cc(F)cc(Br)c3)nc2n1` [Example 81, N-[(3-Bromo-5-fluorophenyl)methyl]-5-methyl-7-(oxan-4-yl)-[1,2,4]triazolo[1,5-a]pyrimidin-2-amine], which “PDE2 (PIC50)” value is on record?
A: >7

Q: `Cc1cc(C2CCOCC2)n2nc(NCc3ccnc(C(F)F)c3)nc2n1` [Example 52, N-{[2-(Difluoromethyl)pyridin-4-yl]methyl}-5-methyl-7-(oxan-4-yl)-[1,2,4]triazolo[1,5-a]pyrimidin-2-amine] was tested. Which “PDE2 (PIC50)” value did it give?
A: >7

Q: With `COc1cc(F)c(CNc2nc3nc(C)cc(C4CCOCC4)n3n2)c(F)c1` [Example 50, N-[(2,6-Difluoro-4-methoxyphenyl)methyl]-5-methyl-7-(oxan-4-yl)-[1,2,4]triazolo[1,5-a]pyrimidin-2-amine] as the molecule, how does the “PDE2 (PIC50)” value read?
A: >7

Same assay, conditions: 200 nM FAM-cAMP substrate, 11-point half-log dose-response, read-out: PDE2 (PIC50)

Q: With `CCC(C)c1cc(C)nc2nc(NCc3ccc(OC)cc3)nn12` (stereo not shown) [Example 11, 7-(sec-butyl)-N-(4-Methoxybenzyl)-5-methyl-[1,2,4]triazolo[1,5-a]pyrimidin-2-amine] as the molecule, how does the IC50 read?
A: 0.1 to 1 µM

Q: `COc1ccc(CNc2nc3nc(C)cc(C4CCOCC4)n3n2)cc1` [Example 1, N-(4-Methoxybenzyl)-5-methyl-7-(tetrahydro-2H-pyran-4-yl)-[1,2,4]triazolo[1,5-a]pyrimidin-2-amine] was tested. Which IC50 did it give?
A: 0.1 to 1 µM

Q: `COc1ccc([C@@H](C)Nc2nc3nc(C)cc(C4CCOCC4)n3n2)cc1` [Example 64, N-[(1R)-1-(4-Methoxyphenyl)ethyl]-5-methyl-7-(oxan-4-yl)-[1,2,4]triazolo[1,5-a]pyrimidin-2-amine] was tested. Which IC50 did it give?
A: 0.1 to 1 µM

Q: For `Cc1cc(C2CC2)n2nc(NCc3ccc4c(c3)CCO4)nc2n1` [Example 2, 7-Cyclopropyl-N-((2,3-dihydrobenzofuran-5-yl)methyl)-5-methyl-[1,2,4]triazolo[1,5-a]pyrimidin-2-amine], which IC50 is on record?
A: 1 to 10 µM

Q: How did the IC50 turn out when `COc1cccc(CNc2nc3nc(C)cc(C4CCOCC4)n3n2)c1` [Example 24, N-[(3-Methoxyphenyl)methyl]-5-methyl-7-(oxan-4-yl)-[1,2,4]triazolo[1,5-a]pyrimidin-2-amine] was run?
A: 0.1 to 1 µM

Q: With `Cc1cc(C2CCC2)n2nc(NCc3cn(-c4ccccc4)nc3C)nc2n1` [Example 71, 7-Cyclobutyl-5-methyl-N-[(3-methyl-1-phenyl-1H-pyrazol-4-yl)methyl]-[1,2,4]triazolo[1,5-a]pyrimidin-2-amine] as the molecule, how does the IC50 read?
A: 0.1 to 1 µM

Q: With `Cc1cc(C2CCCC2)n2nc(NCc3ccc4c(c3)CCC4)nc2n1` [Example 5, 7-Cyclopentyl-N-((2,3-dihydro-1H-inden-5-yl)methyl)-5-methyl-[1,2,4]triazolo[1,5-a]pyrimidin-2-amine] as the molecule, how does the IC50 read?
A: 0.1 to 1 µM

Q: `COc1ccc(CNc2nc3nc(C)cc(C4(C)CCOCC4)n3n2)cc1` [Example 34, N-[(4-Methoxyphenyl)methyl]-5-methyl-7-(4-methyloxan-4-yl)-[1,2,4]triazolo[1,5-a]pyrimidin-2-amine] was tested. Which IC50 did it give?
A: 0.1 to 1 µM

Q: `Cc1cc(C2CCOCC2)n2nc(NCc3cc(F)ccc3F)nc2n1` [Example 49, N-[(2,5-Difluorophenyl)methyl]-5-methyl-7-(oxan-4-yl)-[1,2,4]triazolo[1,5-a]pyrimidin-2-amine] was tested. Which IC50 did it give?
A: 0.1 to 1 µM

Q: Which IC50 does the source give for `Cc1cc(C(C)(C)C)n2nc(NCc3cccc(Cl)c3)nc2n1` [Example 9, 7-(tert-Butyl)-N-(3-chlorobenzyl)-5-methyl-[1,2,4]triazolo[1,5-a]pyrimidin-2-amine] here?
A: 0.1 to 1 µM

Q: How did the IC50 turn out when `Cc1cc(CNc2nc3nc(C)cc(C4(C)CCOCC4)n3n2)ccn1` [Example 43, 5-Methyl-7-(4-methyloxan-4-yl)-N-[(2-methylpyridin-4-yl)methyl]-[1,2,4]triazolo[1,5-a]pyrimidin-2-amine] was run?
A: 0.1 to 1 µM

Q: Which IC50 does the source give for `Cc1cc(CNc2nc3nc(C)cc(C4CCOCC4)n3n2)ccn1` [Example 35, 5-Methyl-N-[(2-methylpyridin-4-yl)methyl]-7-(oxan-4-yl)-[1,2,4]triazolo[1,5-a]pyrimidin-2-amine] here?
A: 0.1 to 1 µM

Q: How did the IC50 turn out when `Cc1cc(C2CCOCC2)n2nc(NCc3ccccc3C)nc2n1` [Example 47, 5-Methyl-N-[(2-methylphenyl)methyl]-7-(oxan-4-yl)-[1,2,4]triazolo[1,5-a]pyrimidin-2-amine] was run?
A: 0.1 to 1 µM

Q: With `Cc1cc(C2CCOCC2)n2nc(NCc3ccc(F)c(F)c3)nc2n1` [Example 56, N-[(3,4-Difluorophenyl)methyl]-5-methyl-7-(oxan-4-yl)-[1,2,4]triazolo[1,5-a]pyrimidin-2-amine] as the molecule, how does the IC50 read?
A: 0.1 to 1 µM

Q: Which IC50 does the source give for `Cc1cc(C2CCOCC2)n2nc(NCc3ccc(F)cc3F)nc2n1` [Example 68, N-[(2,4-Difluorophenyl)methyl]-5-methyl-7-(oxan-4-yl)-[1,2,4]triazolo[1,5-a]pyrimidin-2-amine] here?
A: 0.1 to 1 µM

Q: For `Cc1cc(C2CCOCC2)n2nc(NCc3ccccc3)nc2n1` [Example 33, N-Benzyl-5-methyl-7-(oxan-4-yl)-[1,2,4]triazolo[1,5-a]pyrimidin-2-amine], which IC50 is on record?
A: 0.1 to 1 µM

Q: `Cc1cccc(CNc2nc3nc(C)cc(C4CCOCC4)n3n2)c1` [Example 28, 5-Methyl-N-[(3-methylphenyl)methyl]-7-(oxan-4-yl)-[1,2,4]triazolo[1,5-a]pyrimidin-2-amine] was tested. Which IC50 did it give?
A: 0.1 to 1 µM

Q: With `Cc1cc(C2CCOCC2)n2nc(NCc3cc(C#N)ccc3F)nc2n1` [Example 73, 4-Fluoro-3-({[5-methyl-7-(oxan-4-yl)-[1,2,4]triazolo[1,5-a]pyrimidin-2-yl]amino}methyl)benzonitrile] as the molecule, how does the IC50 read?
A: 0.1 to 1 µM

Q: Which IC50 does the source give for `Cc1cc(C2CCOCC2)n2nc(NCc3cccc(F)c3)nc2n1` [Example 58, N-[(3-Fluorophenyl)methyl]-5-methyl-7-(oxan-4-yl)-[1,2,4]triazolo[1,5-a]pyrimidin-2-amine] here?
A: 0.1 to 1 µM

Q: How did the IC50 turn out when `Cc1cc(C2CCOCC2)n2nc(NCc3cc(F)cc(F)c3)nc2n1` [Example 14, N-[(3,5-Difluorophenyl)methyl]-5-methyl-7-(oxan-4-yl)-[1,2,4]triazolo[1,5-a]pyrimidin-2-amine] was run?
A: 0.1 to 1 µM

Q: With `Cc1cc(C(C)C)n2nc(NCc3cccc(Cl)c3)nc2n1` [Example 7, N-(3-Chlorobenzyl)-7-isopropyl-5-methyl-[1,2,4]triazolo[1,5-a]pyrimidin-2-amine] as the molecule, how does the IC50 read?
A: 1 to 10 µM
